In patent publication US6638938B1, “Method for preventing tissue injury from hypoxia” (Cell Therapeutics, Inc., priority 1993, dated 2003):

Columns and labels:
[1] = test system: lungs of mice subjected to hemorrhage and resuscitation; experiment: lung histology in murine hemorrhage and resuscitation model; type: in vivo, Balb/C mice
Method: (§1) This example illustrates a study of Lisofylline in a murine hemorrhage and resuscitation model. Male Balb/C mice, 8-12 weeks of age, were obtained from Harlan-Sprague Dawley (Indianapolis, Ind.). The animals were kept on a 12 hour light/dark cycle with free access to food and water. With this model, 30% of the calculated blood volume (approximately 0.55 ml for a 20 gram mouse) was withdrawn from a methoxyflurane anesthetized mouse by cardiac puncture over a 60-second period. The blood was collected into a heparinized syringe (5 units heparin), kept at 37° C. for one hour, then reinfused into the mouse through a retroorbital plexus injection. Using this method, one is able to resuscitate all hemorrhaged mice without complication. The total period of methoxyflurane anesthesia is less than 2 minutes in all cases. The mortality rate with this hemorrhage protocol is approximately 12%, with all deaths occurring over the 24 hours post hemorrhage, and most deaths occurring within the one hour post hemorrhage.
(§2) Mice were treated with 100 mg/kg Lisofylline in 0.2 ml PBS and given initially i.v., by retroorbital injection, then i.p. every 8 hours for a total of 9 doses. In hemorrhaged mice, the Lisofylline in PBS was added to the shed blood, and then given retroorbitally with the blood during the resuscitation phase. In hemorrhaged Balb/C mice (n=3), sacrificed by exsanguination 5 minutes after receiving Lisofylline with the blood used for resuscitation, serum levels of Lisofylline were 44±6 μg/ml.
At 3 days following hemorrhage and resuscitation or the initiation of Lisofylline treatment, mice were sacrificed and the pulmonary circulation flushed with chilled PBS injected into the right ventricle, as described above. The left lower lobe of the lungs was placed into formalin. Hematoxylin and eosin sections of the lungs were prepared, and examined in a blinded fashion by a pulmonary pathologist who was unaware of the group to which the individual animal belonged. Lungs from normal, unmanipulated Balb/C mice also were included as additional controls. The histopathologic findings were scored on a 0 to 3 scale (with 0 being normal and 3 being the most severe change) for the following variables: a) neutrophil infiltration into the pulmonary interstitium; b) intraaveolar hemorrhage; and c) interstitial edema.
Groups of 6 to 8 mice were used for each condition. For each experimental condition, the whole group of animals was prepared and then studied at the same time. Cells, mRNA, BAL supernatants, and plasma were obtained individually from eachanimal, and then were analyzed individually before calculating group data. Data are presented as mean±standard error of the mean (SEM) for each experimental group. One-way analysis of variance and the Student Newman Keuls test were used for comparisons between normal, nominal treated, hemorrhage/treated and hemorrhage data groups. A P value of less than 0.05 was considered significant.

[2] = test system: mRNA for IL-1β, IL-6, TNFα and IFN-γ; experiment: cytokine mRNA by PCR in murine hemorrhage and resuscitation model; type: in vivo, Balb/C mice
Method: as §1, §2
Intraparenchymal pulmonary mononuclear cells were isolated by collagenase digestion and Percoll® gradient purification using techniques previously described. Briefly, after the mouse was killed by cervical dislocation or exsanguination, the chest was opened and the lung vascular bed was flushed by injecting 3-5 ml of chilled (4° C.) PBS into the right ventricle. The lungs were then excised, avoiding the paratracheal lymph nodes, and washed twice in RPMI 1640. The lungs were minced finely, and the tissue pieces placed in RPMI 1640 with 5% FCS, penicillin/streptomycin, 10 mM HEPES, 50 μM 2-ME, 20 mM L-glutamine, containing 20 U/ml collagenase and 1 μg/ml DNase. Following incubation for 60 minutes at 37° C., any remaining intact tissue was disrupted by passage through a 21 gauge needle. Tissue fragments and the majority of dead cells were removed by rapid filtration through a glass wool column, and cells collected by centrifugation. The cell pellet was suspended in 4 ml of 80% Percoll® (Pharmacia, Uppsala, Sweden) and 4 ml of 40% Percoll® was then layered on. After centrifugation at 600 g for 20 minutes at 15° C., the cells at the interface were collected, washed in RPMI 1640, and counted. Viability, as determined by trypan blue exclusion, was consistently greater than 98%.
Peripheral blood mononuclear cells were isolated from heparinized blood which had been diluted 2:1 with PBS, pH 7.3, and layered onto a gradient containing 4 ml Lympholyte M (Accurate Chemicals, San Diego, Calif.). After centrifugation at 600 g for 20 minutes at 15° C., the cells at the interface were collected, washed in RPMI 1640, and counted. Viability, as determined by trypan blue exclusion, was consistently greater than 98%. Plasma was collected following centrifugation of bloodto whichhad beenadded 10^−3 M EDTA.
mRNA was isolated using oligo dT cellulose minicolumns (Invitrogen San Diego, Calif.). cDNA was synthesized from the mRNA of 100,000 cells for all cell populations except alveolar macrophages (where 20,000 cells were used) using Moloney murine leukemia virus reverse transcriptase and random hexamer oligonucleotides according to the procedure of Kawasaki (PCR Protocols: A Guide to Methods and Applications, Innis et al., eds, pp. 21-27, Academic Press, New York, 1991). […]

[3] = test system: LPAAT (lysophosphatidic acyltransferase); experiment: inhibition of LPAAT activity; type: biochemical; details: LPAAT activated by IL-1
[4] = hemorrhaged/resuscitated mice, 100 mg/kg every 8 hours, 9 doses, 3 days, not significantly different from normal

C[C@@H](O)CCCCn1c(=O)c2c(ncn2C)n(C)c1=O [Lisofylline, 1-R-(5-hydroxyhexyl)-3,7-dimethylxanthine]
number of neutrophils in the pulmonary interstitium ([1]; hemorrhaged mice treated, versus hemorrhaged/resuscitated untreated, 3 days): significantly decreased
degree of interstitial edema [1, 4]: minimal
degree of intraaveolar hemorrhage [1, 4]: minimal
number of neutrophils in the lungs ([1]; normal mice treated, versus normal untreated): significantly increased
lung injury ([1]; rodent model of hemorrhage and reperfusion): completely prevented
murine lung cytokine levels (FIG. 5) ([2]; determined by PCR, following hemorrhage and resuscitation): significantly decreased
lung cytokine concentrations (FIG. 7) ([2]; following hemorrhage shock in mice, model of ARDS): significantly decreased
TNFα mRNA levels in PBMC ([2]; hemorrhage/resuscitated mice treated, versus untreated, 3 days): significantly decreased
amounts of mRNA for IL-1β and TNF among cells isolated from BAL samples ([2]; hemorrhaged/resuscitated mice treated, versus normal untreated or normal treated mice): not different
levels of mRNA for IL-1β, IL-6, TNFα and IFN-γ among intraparenchymal pulmonary mononuclear cells ([2]; hemorrhaged/resuscitated mice treated, versus untreated, 3 days): significantly decreased
mRNA levels in PBMC for IL-1β, IL-6, TNFα and IFN-γ ([2]; treatment after hemorrhage): did not affect
mode of LPAAT inhibition [3]: direct inactivator and competitive inhibitor
